Laboratory results published in ChEMBL document CHEMBL2202990, “(R)- and (S)-4-Amino-3-(trimethylsilyl)methylbutanoic acids ameliorate neuropathic pain without central nervous system-related side effects” (Bioorg Med Chem Lett, 2012).
Calls of active or inactive are those of the source.

Experiments:
Rattus norvegicus [1] = assay: Antiallodynic activity in CD rat SNL pain model assessed as increase in paw withdrawal threshold at 60 mg/kg, po measured up to 180 mins; assay type: functional, organism-based; parameters: dose 60 mg/kg
Mus musculus [2] = assay: Toxicity against mouse assessed as protection against pentetrazole-induced death at 5 mg/kg; assay type: organism-based; parameters: dose 5 mg/kg; conditions: in vivo
Mus musculus [3] = assay: Toxicity against mouse assessed as protection against pentetrazole-induced death at 15 mg/kg; assay type: organism-based; parameters: dose 15 mg/kg; conditions: in vivo
Mus musculus [4] = assay: Toxicity against mouse assessed as protection against maximal-electroshock-induced tonic seizure at 5 mg/kg; assay type: organism-based; parameters: dose 5 mg/kg; conditions: in vivo
Mus musculus [5] = assay: Toxicity against mouse assessed as protection against pentetrazole-induced death at 45 mg/kg; assay type: organism-based; parameters: dose 45 mg/kg; conditions: in vivo
Mus musculus [6] = assay: Toxicity against mouse assessed as protection against maximal-electroshock-induced tonic seizure at 45 mg/kg; assay type: organism-based; parameters: dose 45 mg/kg; conditions: in vivo
Mus musculus [7] = assay: Toxicity against mouse assessed as protection against maximal-electroshock-induced tonic seizure at 15 mg/kg; assay type: organism-based; parameters: dose 15 mg/kg; conditions: in vivo
Rattus norvegicus [8] = assay: Toxicity against CD rat SNL pain model assessed as hypalgesic activity on the contralateral side of paw at 40 mg/kg, po at 90 mins relative to control; assay type: organism-based; parameters: dose 40 mg/kg, route oral; conditions: in vivo, 1.5 h
Rattus norvegicus [9] = assay: Toxicity against CD rat SNL pain model assessed as hypalgesic activity on the contralateral side of paw at 20 mg/kg, po at 90 mins relative to control; assay type: organism-based; parameters: dose 20 mg/kg, route oral; conditions: in vivo, 1.5 h
Rattus norvegicus [10] = assay: Antiallodynic activity in CD rat SNL pain model assessed as increase in paw withdrawal threshold at 20 mg/kg, po measured after 90 mins; assay type: functional, organism-based; parameters: dose 20 mg/kg
Rattus norvegicus [11] = assay: Antiallodynic activity in CD rat SNL pain model assessed as increase in paw withdrawal threshold at 20 mg/kg, po measured from 30 to 60 mins; assay type: functional, organism-based; parameters: dose 20 mg/kg
Rattus norvegicus [12] = assay: Toxicity against rat assessed as somnolence at 30 mg/kg; assay type: organism-based; parameters: dose 30 mg/kg; conditions: in vivo
Rattus norvegicus [13] = assay: Antiallodynic activity in CD rat SNL pain model assessed as increase in paw withdrawal threshold at 20 mg/kg, po measured at 90 mins; assay type: functional, organism-based; parameters: dose 20 mg/kg
Rattus norvegicus [14] = assay: Antiallodynic activity in CD rat SNL pain model assessed as increase in paw withdrawal threshold at 20 mg/kg, po measured from 30 to 180 mins; assay type: functional, organism-based; parameters: dose 20 mg/kg
Rattus norvegicus [15] = assay: Antiallodynic activity in CD rat SNL pain model assessed as increase in paw withdrawal threshold at 40 mg/kg, po measured from 30 to 180 mins; assay type: functional, organism-based; parameters: dose 40 mg/kg

C[Si](C)(C)CC(CN)CC(=O)O (racemic)
Activity (Rattus norvegicus [1]): Active

C[Si](C)(C)C[C@@H](CN)CC(=O)O
Activity (Mus musculus [2]): Non-toxic | Activity (Mus musculus [3]): Non-toxic | Activity (Mus musculus [4]): Non-toxic | Activity (Mus musculus [5]): Non-toxic | Activity (Mus musculus [6]): Non-toxic | Activity (Mus musculus [7]): Non-toxic | Activity (Rattus norvegicus [8]): Non-toxic | Activity (Rattus norvegicus [9]): Non-toxic | Activity (Rattus norvegicus [10]): inactive | Activity (Rattus norvegicus [11]): Active

CC(C)C[C@H](CN)CC(=O)O [PREGABALIN]
Activity (Rattus norvegicus [12]): Toxic | Activity (Mus musculus [5]): Toxic | Activity (Mus musculus [6]): Toxic | Activity (Mus musculus [7]): Toxic | Activity (Rattus norvegicus [9]): Toxic | Activity (Rattus norvegicus [13]): Active | Activity (Rattus norvegicus [14]): Active

C[Si](C)(C)C[C@H](CN)CC(=O)O
Activity (Mus musculus [2]): Non-toxic | Activity (Mus musculus [3]): Non-toxic | Activity (Mus musculus [4]): Non-toxic | Activity (Mus musculus [5]): Non-toxic | Activity (Mus musculus [6]): Non-toxic | Activity (Mus musculus [7]): Non-toxic | Activity (Rattus norvegicus [8]): Non-toxic | Activity (Rattus norvegicus [9]): Non-toxic | Activity (Rattus norvegicus [15]): Active | Activity (Rattus norvegicus [14]): inactive
